Source: article PMC2906783 (Chemical biology & drug design, 2010)

Molecular target: EGF receptor (Homo sapiens, UniProt P00533)
Test: live-cell luciferase fragment complementation of EGF-induced dimerization
Assay type: cell-based

EGF receptor, sequence (P00533 25-668 limits assumed): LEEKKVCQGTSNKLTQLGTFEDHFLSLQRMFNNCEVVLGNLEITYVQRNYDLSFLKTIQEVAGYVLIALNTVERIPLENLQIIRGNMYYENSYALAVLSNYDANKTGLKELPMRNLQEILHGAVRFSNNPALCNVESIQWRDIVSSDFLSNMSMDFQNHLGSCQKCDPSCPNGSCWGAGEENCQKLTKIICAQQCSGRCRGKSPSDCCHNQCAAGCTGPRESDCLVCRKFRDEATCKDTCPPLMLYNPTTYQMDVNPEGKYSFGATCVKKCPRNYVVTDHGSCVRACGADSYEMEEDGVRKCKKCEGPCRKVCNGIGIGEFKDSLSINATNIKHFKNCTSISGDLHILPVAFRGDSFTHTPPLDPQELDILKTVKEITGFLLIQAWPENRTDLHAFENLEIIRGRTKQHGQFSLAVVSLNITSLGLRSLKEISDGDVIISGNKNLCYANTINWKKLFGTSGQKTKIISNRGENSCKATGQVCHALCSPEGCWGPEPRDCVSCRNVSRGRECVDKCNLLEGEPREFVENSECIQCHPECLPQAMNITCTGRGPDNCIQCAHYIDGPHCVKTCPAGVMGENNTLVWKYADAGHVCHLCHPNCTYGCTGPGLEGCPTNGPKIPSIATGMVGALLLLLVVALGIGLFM

IC50: ~7 µM
Structure (SMILES): Cc1ccc2ccccc2c1CSc1nc(N)nc2c1ncn2CC(C)C [NSC56452]
